By IC50 is commonly meant the concentration that inhibits the measured activity by half. High values mean lower potency, low ones higher potency.

Acetylcholinesterase, sequence (P22303 whole entry): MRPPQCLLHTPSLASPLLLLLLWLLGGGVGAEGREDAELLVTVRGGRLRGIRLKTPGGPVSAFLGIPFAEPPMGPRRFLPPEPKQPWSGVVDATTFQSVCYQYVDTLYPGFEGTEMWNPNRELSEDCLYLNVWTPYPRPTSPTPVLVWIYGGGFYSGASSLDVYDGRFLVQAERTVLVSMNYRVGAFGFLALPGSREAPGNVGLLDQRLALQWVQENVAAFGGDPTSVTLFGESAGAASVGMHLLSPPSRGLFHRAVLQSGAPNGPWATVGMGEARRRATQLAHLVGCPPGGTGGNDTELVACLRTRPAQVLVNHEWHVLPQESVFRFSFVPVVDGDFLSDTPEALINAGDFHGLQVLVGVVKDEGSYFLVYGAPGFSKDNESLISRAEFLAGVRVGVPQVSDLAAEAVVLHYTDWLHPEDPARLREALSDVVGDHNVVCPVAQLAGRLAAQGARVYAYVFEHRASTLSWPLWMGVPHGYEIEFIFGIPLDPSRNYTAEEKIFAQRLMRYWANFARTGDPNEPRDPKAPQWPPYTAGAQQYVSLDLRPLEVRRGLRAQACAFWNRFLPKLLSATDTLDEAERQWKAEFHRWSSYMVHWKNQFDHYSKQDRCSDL

This experiment addresses Acetylcholinesterase (Homo sapiens, UniProt P22303). Put plainly: Inhibition of AChE (unknown origin).
`CO[C@@H]1C=C[C@@]23c4cc5c(cc4CN(CCc4ccccc4)[C@@H]2C(=O)N(C)[C@H]3C1)OCO5` displayed a half-maximal inhibitory concentration (IC50) of over 200 µM. As to `CN[C@H]1C[C@H](OC)C=C[C@@]12C(=O)N(CCC(C)C)Cc1cc3c(cc12)OCO3`, the IC50 was over 200 µM. With `COc1cc2c(cc1O)[C@@H]1[C@H](O)[C@@H](OC)C=C3CCN(C2)[C@H]31` the figure was over 200 µM; with `CO[C@@H]1C=C[C@@]23c4cc5c(cc4C[N@@+]([O-])(CCc4ccccc4)[C@@H]2C(=O)N(C)[C@H]3C1)OCO5`, over 200 µM. Next, `CO[C@@H]1C=C[C@@]2(CN(CCC(C)C)Cc3cc4c(cc32)OCO4)[C@@H](N(C)C=O)C1`: over 200 µM. With `CO[C@@H]1C=C[C@@]23c4cc5c(cc4C[N@@+]([O-])(CCc4ccc(O)cc4)[C@@H]2C(=O)N(C)[C@H]3C1)OCO5` the figure was over 200 µM; with `CO[C@@H]1C=C[C@@]23c4cc5c(cc4CN(CCC(C)C)[C@@H]2C(=O)N(C)[C@H]3C1)OCO5`, over 200 µM; with `COc1ccc2c3c1O[C@H]1C[C@@H](O)CC[C@@]31CC[N@@+](C)([O-])C2`, over 200 µM. In turn, `COc1cc2c(cc1O)[C@@H]1[C@H](O)[C@@H](OC)C=C3CC[N@@+]([O-])(C2)[C@H]31` displayed a half-inhibitory concentration (IC50) of over 200 µM. With `CO[C@@H]1C=C[C@@]23c4cc5c(cc4CN(CCc4ccc(O)cc4)[C@@H]2C(=O)N(C)[C@H]3C1)OCO5` the figure was over 200 µM. `COc1ccc2c3c1O[C@H]1C[C@H](O)CC[C@@]31CCN(C)C2` gave an IC50 of 57.9 µM. With `CO[C@@H]1C=C[C@@]23c4cc5c(cc4CN(CCC(C)C)[C@]2(C(C)=O)C(=O)N(C)[C@H]3C1)OCO5` the figure was over 200 µM; with `CO[C@@H]1C=C[C@@]23c4cc5c(cc4C(=O)N(C)[C@@H]2C(=O)N(C)[C@H]3C1)OCO5`, over 200 µM. `CO[C@@H]1C=C[C@@]23c4cc5c(cc4C(=O)N(CCC(C)C)[C@@H]2CN(C)[C@@H]3C1)OCO5` had an IC50 of over 200 µM. With `COc1cc2c3c(c1)c1cc(=O)c(OC)cc-1cn3CC2` the figure was 35.6 µM; with `CO[C@@H]1C=C[C@@]23c4cc5c(cc4C[N@@+]([O-])(CCO)[C@@H]2C(=O)N(C)[C@H]3C1)OCO5`, 126 µM. Take `COc1cc2c(cc1OC)[C@@H]1[C@H](O)[C@@H](OC)C=C3CC[N@+]([O-])(C2)[C@H]31`: the IC50 is over 200 µM.

Molecule `CO[C@@H]1C=C[C@@]23c4cc5c(cc4CN(C)[C@@H]2C(=O)N(C)[C@H]3C1)OCO5` came in with an IC50 of over 200 µM.

For `COc1ccc2c3c1O[C@H]1C[C@@H](O)C=C[C@@]31[C@H](O)C[N@@+](C)([O-])C2`, the half-inhibitory concentration (IC50) was over 200 µM. With `CO[C@@H]1C=C[C@@]23c4cc5c(cc4C(=O)N(CCC(C)C)[C@@H]2C(=O)N(C)[C@H]3C1)OCO5` the figure was over 200 µM; with `COc1ccc2c3c1O[C@H]1C[C@@H](O)CC[C@@]31CCN(C)C2`, 20.1 µM; with `COc1cc2c(cc1OC)[C@@H]1[C@H](O)[C@@H](OC)C=C3CCN(C2)[C@H]31` [GALANTHINE], 6.1 µM. The molecule `O[C@H]1[C@H]2c3cc4c(cc3CN3CCC(=C[C@@H]1O)[C@H]23)OCO4` [LYCORINE] yielded an IC50 of over 200 µM.

Take `COc1cc2c(cc1O)[C@@H]1[C@H](O)[C@@H](O)C=C3CCN(C2)[C@H]31` [PSEUDOLYCORINE]: half-maximal inhibition (IC50) was put at 188 µM.
